B1: Apo C-2: natural (human) apoprotein C-II (protein, UniProt P02655 29-101, looked up)
Apolipoprotein C-II: DEMPSPTFLTQVKESLSSYWESAKTAAQNLYEKTYLPAVDEKLRDLYSKSTAAMSTYTGIFTDQVLSVLKGEE
modifications: Apolipoprotein C-II
B2: rabbit apo A-1: rabbit apolipoprotein A-1, literature values for comparison (protein, UniProt P09809 25-266, looked up)
Apolipoprotein A-I: DEPRSSWDKIKDFATVYVDTVKDSGREYVAQFEASAFGKQLNLKLLDNWDSLSSTVSKLQEQLGPVTQEFWDNLEKETEGLREEMNKDLQEVRQKVQPYLDEFQKKWQEEVERYRQKVEPLGAELRESARQKLTELQEKLSPLAEELRDSARTHVDTLRTKLAPYSNELQQRLAARLESIKEGGGASLAEYQAKAREHLSVLSEKARPALEDLRQGLLPVLESFKASVQNVLDEATKKLNTQ
modifications: Apolipoprotein A-I
notes: rabbit apolipoprotein A-1, literature values for comparison
B3: Apo A-4: natural (human) apoprotein A-IV (protein, UniProt P06727 21-396, looked up)
Apolipoprotein A-IV: EVSADQVATVMWDYFSQLSNNAKEAVEHLQKSELTQQLNALFQDKLGEVNTYAGDLQKKLVPFATELHERLAKDSEKLKEEIGKELEELRARLLPHANEVSQKIGDNLRELQQRLEPYADQLRTQVSTQAEQLRRQLTPYAQRMERVLRENADSLQASLRPHADELKAKIDQNVEELKGRLTPYADEFKVKIDQTVEELRRSLAPYAQDTQEKLNHQLEGLTFQMKKNAEELKARISASAEELRQRLAPLAEDVRGNLRGNTEGLQKSLAELGGHLDQQVEEFRRRVEPYGENFNKALVQQMEQLRQKLGPHAGDVEGHLSFLEKDLRDKVNSFFSTFKEKESQDKTLSLPELEQQQEQQQEQQQEQVQMLAPLES

What was measured:
normal human BBMV = test: [14C]Cholesterol uptake from egg PC vesicles by normal human duodenal BBMV; format: biochemical; conditions: human duodenal BBMV
Experimental: Biopsy samples from human duodenum, 20 to 30 mg of wet tissue each, were suspended in 200 μl buffer (12 mM Tris HCl pH 7.2, 300 mM mannitol, 5 mM EGTA, 1 mM phenylmethylsulfonyl fluoride), frozen in liquid nitrogen and stored at −80° C. prior to use. BBMV were prepared by Mg^+2 precipitation (Hauser et al, Biochim. Biophys. Acta 602 567-577 (1980)) as described in detail by Booth et al (Lancet 1 1066-1069 (1985)). Proteinase K treatment of the BBMV was carried out according to Thurnhofer and Hauser (Biochim. Biophys. Acta 1024 249-262 (1990)). […] Small unilamellar phesrholipid vesicles were prepared by tip sonication (Schulthess, Biochemistry 33 4500-4508 (1994)).
(I) Egg PC small unilamellar vesicles containing […] (^14C] cholesterol and BBMV both dispersed in 10 mM Tris-HCl pH 7.2, 0.15 M NaCl, 5 mM EDTA were incubated at room temperature. After timed intervals phospholipid vesicles and BBMV were separated by centrifugation at 115000 g for 2 min in a Beckman airfuge. The radioactivities present in pellet and supernatant were determined by counting aliquots in a Beckman LS 7500 liquid scintillatior counter. Fusion of egg PC small unilamellar vesicles and BBMV as a possible mechanism of cholesterol uptake was ruled out as discussed in detail in previous studies (Thurnhofer and Hauser, Biochemistry 29 2142-2148 (1990); Compassi, Biochemistry 34 16473-16482 (1995) and Schulthess, J. Lipid. Res. 37 2405-2419 (1996)).
The experimental data were computer-fitted using the following equation valid for single-exponential exchange reactions: X=X∞+[XO−X∞]e^-k1^[(a+b)/a]t, where XO, X and X∞represent the fractions of the labelled lipid in the donor at times 0, t and at equilibrium, respectively. K1 is the pseudo-first-order rate constant of the reaction and a and b are the lipid pools of acceptor and donor, respectively (McKay, Nature 142 997-998 (1938) and Mutsch et al, Biochemistry 25 2134-2140 (1986).
Kinetic measurements were also carried out in the presence of inhibitors; synthetic peptides or apolipoproteins were added to the […] of donor and acceptor vesicles. Cholesterol uptake by native and proteinase K treated BBMV was determined in the presence of increasing concentrations of Ac-18A-NH2, the difference between cholesterol uptake by native and proteinase K treated BBMV is referred as protein-mediated cholesterol uptake in FIG. 6. The IC50 values were determined according to Methods Enzymol. 37 3-22 (1975).

BBMVs = test: Inhibition of cholesteryl oleate uptake by BBMVs by peptides of varying lengths (Example 8); format: biochemical; conditions: for Inhibition of Cholesteryloleate Uptake In. %: donor 0.05 mg total lipid/ml, acceptor 5 mg protein/ml, 23° C.
Experimental: going from one peptide to the other (top→bottom) 3 amino acids were removed from the N-terminus. The inhibitory effect of the four peptides listed above were compared at 120 μg peptide/ml. The lipid uptake by BBMVs was measured in the presence of 120 μg peptide/ml each as described below.
Donor and acceptor particles dispersed in Tris/NaCl buffer were centrifuged in a Beckman airfuge at 115000 g is for 2 min at 4° C. The dispersion of the acceptor yielded a pellet which was resuspended in Tris/NaCl buffer. Varying amounts of inhibitor dissolved in the same buffer were added to the acceptor dispersion and at time zero the dispersiorn of acceptor with or without inhibitor was mixed with the top 80% of the supernatant obtained by centrifugation of the donor dispersion. The final concentration of the donor was 0.05 mg total lipid/ml and that of the acceptor was 5 mg protein/ml. The resulting dispersion was incubated at 23° C. and after timed intervals the sterol uptake was stopped by dilution of the incubation medium with 2 volumes of Tris/NaCl buffer. BBMV were separated from the donor by centrifugation in the Beckman airfuge at 115000 g for 2 min at 4° C. The radioactivities in the supernatant containing the donor and in the pellet containing the BBMV (acceptor) were determined in a Beckman LS 7500 scintillation counter.

[1] = system: brush border membrane vesicles (BBMV); test: IC50 of cholesteryl oleate uptake at the brush border membrane (Example 6); format: biochemical, rabbit; conditions: donor 0.1 mg total lipid/ml, acceptor 2 mg protein/ml; 20 min at 25° C.
Experimental: An appropriate amount of inhibitor dissolved in 84.5 μl buffer (0.05 M Tris pH 7.4, 0.15 M NaCl) is mixed in an Eppendorf tube at time zero with 5 μl of a dispersion of donor and 10.5 μl of a dispersion of acceptor (i.e. brush border membrane vesicles (BBMV)) in the same buffer. The final concentration of the donor vesicles was 0.1 mg total lipid/ml, that of the acceptor was 2 mg protein/ml. The resulting mixture was incubated for 20 min at 25° C., and the reaction was stopped by adding 60 μl of the incubation medium to 120 μl ice-cold bufferin an airfuge tube. The diluted dispersion was immediately centrifuiaed in the airfuge at […] for 2 min. at 4° C. to separate donor vesicles from BBMV. Two 60 μl aliquots of the donor (=supernatant) were counted in a Beckman LS-7500 liquid scintillating counter to determine the radioactivity remaining in tbe donor.
Small unilamellar egg phosphatidycholine (PC) vesicles containing 1 mol % of cholesterol oleate and a trace amount of ^3H-cholesterol oleyl ether were made by dissolving the appropriate amounts of the lipids in CHCl3/CH3OH, (2:1, by vol.), taking the solution to dryness on a rotary evaporator and drying the residue in vacuo. The dried lipid film was dispersed in the appropriate volume of buffer by hand-shaking. The lipid dispersion was subjected to tip sonication as described in Brunner et al, J. Biol. Chem. 253 7538-7546 (1978). The resulting donor dispersion in buffer was centrifuged in the airfuge at 100000 g for 2 min at […]. Only the top 80% of the donor dispersion after centrifugation was used in the lipid uptake experiment.
BBMV were prepared from frozen rabbit small intestine according to Hauser et al (Biochim. Biophys. Acta 602 567-577 (1980)). Prior to use in the uptake experiment determining IC50 values the BBMV were washed to remove any free protein liberated from the BBM. To this end the BBMV dispersion was diluted with buffer 1:1 in an airfuge tube, and the diluted dispersion was centrifuged in the airfuga at 100000 g for 2 min at […]. The supernatant was is carefully decanted, the pellet was resuspended in buffer to the original volume of the BBMV dispersion, and the dispersion was homogenized. […]

rabbit BBMV = test: Dose response of cholesteryl oleate uptake from egg PC SUVs by rabbit BBMV (FIG. 4B); format: biochemical; conditions: donor 0.05 mg/ml total lipid, acceptor 1.7 mg protein/ml, 20 min at 25° C., curve fits of FIG. 4B
Experimental: Small unilamellar vesicles of egg phosphatidylcholine containing 1 mol % cholesteryl oleate and a trace amount of (1,2-^3H2 (N)]-cholesteryl oleyl ether (37 Ci/mmol, from Amersham, UK) as the donor were made as described in Example 1 and BBMVs as the acceptor were prepared from rabbit small intestine (see Example 1). Donor and acceptor both dispersed in Tris/NaCl buffer (0.05 M Tris HCl pH 7.4, 0.15 M NaCl, 0.02% NaN3) and a solution of human apo A-1 or sheep HDL in the same buffer were mixed at time zero (total volume: 0.1 ml) so that the final concentrations of donor and acceptor were 0.05 mg/ml total lipid and 1.7 mg protein/ml, respectively. After incubation of the suspension of donor and acceptor in the presence of inhibitor for 20 min. at 25° C., the reaction was stopped by dilution with 2 vol. of Tris/NaCl buffer. Donor and acceptor were separated by centrifugation in the airfuge at 115,000 g for 2 min. at […]., and the radioactivities in the supernatant containing donor vesicles and in the pellet containing BBMVs were determined in a BECKMAN™ LS 7500 scintillation counter. […]
Experimental conditions were as described for FIG. 4A. The cholesterol absorption activity of BBMVs measured in the absence of inhibition was taken as 100% and the loss in activity observed in the presence of inhibitor is expressed as %. […]

[2] = taken from Chapman (1986), for comparison; cited from earlier work

| Molecule | IC50 [1] [µM] | IC50 (μg/mL) of cholesteryl oleate uptake at the brush border membrane [1] [µg/mL] | further results |
| --- | --- | --- | --- |
| Ac-Asp-Trp-Leu-Alα—Lys-Asp-Tyr-Phe-Lys-Lys-Alα —Leu-Val-Glu-Glu-Phe-Alα—Lys-NH2 [scrambled Ac-18A-NH2, reference compound] | – | – | inhibition of protein-mediated cholesterol uptake (in words) (normal human BBMV): inactive |
| Ac-Lys-Alα-Phe-Tyr-Asp-Lys-Val-Alα-Glu-Lys-Leu-Lys-Glu-Alα α-Phe-NH2 (Ac-KAFYDKVAEKLKEAF-NH2) [Ac-15A-NH2] | – | – | inhibitory effect on cholesteryl oleate uptake (in words, footnote) (BBMVs; 120 μg peptide/ml): Useful inhibitory effect is seen with Peptides Nos. 1 and 2.; Inhibition of Cholesteryloleate Uptake In. % (BBMVs; 120 μg peptide/ml): 85%; cholesteryl oleate uptake inhibition activity relative to Ac-18A-NH2 (BBMVs; brush border membrane vesicle model): 85% |
| Apo C-1: natural (human) apoprotein C-I (TPDVSSALDKLKEFGNTLEDKARELISRIKQSELSAKMREWFSETFQKVKEKLKIDS; Apolipoprotein C-I; UniProt P02654 27-83, looked up) | 1.8 ± 0.4 | 12 ± 2 | – |
| Apo C-31: natural (human) apoprotein C-III1 | 0.6 ± 0.1 | 4.8 ± 0.8 | – |
| Apo C-32: natural (human) apoprotein C-III2 | 0.5 ± 0.2 | 4.2 ± 0.2 | – |
| Apo E: natural (human) apoprotein E | 2.9 ± 0.2 | 95 ± 7 | – |
| CH3CO—VAEKLKEAF—NH2 (Ac-VAEKLKEAF-NH2) [Ac-9A-NH2] | – | – | Inhibition of Cholesteryloleate Uptake In. % (BBMVs; 120 μg peptide/ml): 0% |
| CH3CO—YDKVAEKLKEAF—NH2 (Ac-YDKVAEKLKEAF-NH2) [Ac-12A-NH2] | – | – | Inhibition of Cholesteryloleate Uptake In. % (BBMVs; 120 μg peptide/ml): 20% |
| apo A-II: human apolipoprotein A-2 | 3.8 ± 0.3 | 66 ± 5 | IC-50 (rabbit BBMV): 66 µg/mL |
| B1 | 2.1 ± 0.1 | 19 ± 1 | – |
| B2 | – | – | isoelectric point [2]: 5.50 |
| B3 | 0.7 ± 0.1 | 32 ± 4 | – |

— patent publication US20010005714A1, “AMPHIPATHIC MOLECULES AS CHOLESTEROL AND OTHER LIPID UPTAKE INHIBITORS” (priority 1996, published 2001)
